Where “and” joins values, the source holds several entries; their conditions need not be identical. Identical values can stand only once. Inconclusive results and toxic doses are left out. No stated cut-off is given here; in the data, active means T/C of 150% or more; inactive means T/C below 125%.
System: L1210 leukemia ip in BDF1 mice, survival T/C
Test: NCI In Vivo Anticancer Drug Screen. Data for tumor model L1210 Leukemia (intraperitoneal) in B6D2F1 (BDF1) mice
Settings: endpoint: mean survival time, higher = longer survival
Procedure, shortened: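 Transplantable tumor model; survival measured in treated vs vehicle control mice. Value = treated/control.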

[1] = dose: 100.0 mg/kg/injection, schedule: Q01DX009 (ip), vehicle: Klucel (hydroxypropylcellulose) (HPC)
[2] = dose: 100.0 mg/kg/injection, schedule: Q04DX003 (ip), vehicle: Klucel (hydroxypropylcellulose) (HPC)
[3] = dose: 200.0 mg/kg/injection, schedule: Q01DX009 (ip), vehicle: Klucel (hydroxypropylcellulose) (HPC)
[4] = dose: 200.0 mg/kg/injection, schedule: Q04DX003 (ip), vehicle: Klucel (hydroxypropylcellulose) (HPC)
[5] = dose: 400.0 mg/kg/injection, schedule: Q01DX009 (ip), vehicle: Klucel (hydroxypropylcellulose) (HPC)
[6] = dose: 400.0 mg/kg/injection, schedule: Q04DX003 (ip), vehicle: Klucel (hydroxypropylcellulose) (HPC)
[7] = dose: 100.0 mg/kg/injection, schedule: Q01DX001 (ip), vehicle: saline
[8] = dose: 200.0 mg/kg/injection, schedule: Q01DX001 (ip), vehicle: saline
[9] = dose: 400.0 mg/kg/injection, schedule: Q01DX001 (ip), vehicle: saline
[10] = dose: 25.0 mg/kg/injection, schedule: Q01DX009 (ip), vehicle: Klucel (hydroxypropylcellulose) (HPC)
[11] = dose: 50.0 mg/kg/injection, schedule: Q01DX009 (ip), vehicle: Klucel (hydroxypropylcellulose) (HPC)
[12] = dose: 50.0 mg/kg/injection, schedule: Q04DX003 (ip), vehicle: Klucel (hydroxypropylcellulose) (HPC)

Measured: T/C

CCNC(C)C
inactive: dose: 25.0 mg/kg/injection, schedule: Q01DX009 (ip), vehicle: saline 98 % of control | dose: 25.0 mg/kg/injection, schedule: Q04DX003 (ip), vehicle: saline 92 % of control | dose: 50.0 mg/kg/injection, schedule: Q01DX009 (ip), vehicle: saline 93 % of control | dose: 50.0 mg/kg/injection, schedule: Q04DX003 (ip), vehicle: saline 97 % of control | dose: 100.0 mg/kg/injection, schedule: Q01DX009 (ip), vehicle: saline 98 % of control | dose: 100.0 mg/kg/injection, schedule: Q04DX003 (ip), vehicle: saline 95 % of control and 107 % of control

COc1cc(Cc2cc(OC)c(O)c(OC)c2)cc(OC)c1O
inactive: [1] 107 % of control | [2] 92 % of control | [3] 93 % of control | [4] 97 % of control | [5] 101 % of control | [6] 95 % of control

O=[N+]([O-])c1ccc(Cl)nc1
inactive: [7] 103 % of control | dose: 100.0 mg/kg/injection, schedule: Q01DX009 (ip), vehicle: saline sonified 100 % of control | [8] 101 % of control | dose: 200.0 mg/kg/injection, schedule: Q01DX009 (ip), vehicle: saline sonified 104 % of control | [9] 103 % of control

NC1(C(=O)O)CC2CC1C2 (stereo not given)
inactive: dose: 100.0 mg/kg/injection, schedule: Q04DX002 (ip), vehicle: other 95 % of control | dose: 200.0 mg/kg/injection, schedule: Q04DX002 (ip), vehicle: other 106 % of control | dose: 400.0 mg/kg/injection, schedule: Q04DX002 (ip), vehicle: other 92 % of control

Cc1cc(N(CCOS(C)(=O)=O)CCOS(C)(=O)=O)ccc1C=Nc1cccc(C(=O)O)c1
inactive: dose: 2.5 mg/kg/injection, schedule: Q04DX003 (ip), vehicle: Klucel (hydroxypropylcellulose) (HPC) 111 % of control | dose: 5.0 mg/kg/injection, schedule: Q04DX003 (ip), vehicle: Klucel (hydroxypropylcellulose) (HPC) 113 % of control | dose: 10.0 mg/kg/injection, schedule: Q04DX003 (ip), vehicle: Klucel (hydroxypropylcellulose) (HPC) 122 % of control | dose: 20.0 mg/kg/injection, schedule: Q04DX003 (ip), vehicle: Klucel (hydroxypropylcellulose) (HPC) 120 % of control | dose: 40.0 mg/kg/injection, schedule: Q04DX003 (ip), vehicle: Klucel (hydroxypropylcellulose) (HPC) 115 % of control

Cc1cc(C)c(O)c(CN(C)C)c1.[Cu+2]
inactive: dose: 50.0 mg/kg/injection, schedule: Q01DX001 (ip), vehicle: saline 98 % of control | [7] 98 % of control

CC1(C)CC(=O)c2c(OC(=O)N(CCCl)CCCl)cc(OC(=O)N(CCCl)CCCl)cc2O1
inactive: dose: 25.0 mg/kg/injection, schedule: Q04DX002 (ip), vehicle: alcohol 94 % of control | dose: 50.0 mg/kg/injection, schedule: Q04DX002 (ip), vehicle: alcohol 113 % of control | dose: 100.0 mg/kg/injection, schedule: Q04DX002 (ip), vehicle: alcohol 94 % of control | dose: 200.0 mg/kg/injection, schedule: Q04DX002 (ip), vehicle: alcohol 97 % of control | dose: 400.0 mg/kg/injection, schedule: Q04DX002 (ip), vehicle: alcohol 90 % of control

O=C(COc1cccc(Cl)c1)Nc1ccc(Cl)cc1
inactive: dose: 100.0 mg/kg/injection, schedule: Q01DX009 (ip), vehicle: gum acacia 86 % of control | dose: 200.0 mg/kg/injection, schedule: Q01DX009 (ip), vehicle: gum acacia 86 % of control | dose: 400.0 mg/kg/injection, schedule: Q01DX009 (ip), vehicle: gum acacia 87 % of control

O=C(O)c1cc(Br)cc(Br)c1Cl
inactive: dose: 100.0 mg/kg/injection, schedule: Q04DX002 (ip), vehicle: Klucel (hydroxypropylcellulose) (HPC) 108 % of control | dose: 200.0 mg/kg/injection, schedule: Q04DX002 (ip), vehicle: Klucel (hydroxypropylcellulose) (HPC) 105 % of control | dose: 400.0 mg/kg/injection, schedule: Q04DX002 (ip), vehicle: Klucel (hydroxypropylcellulose) (HPC) 97 % of control

CCOC1C=CC(OC(C)=O)C(COC(C)=O)O1 (stereo not given)
inactive: [1] 108 % of control | [2] 96 % of control | [3] 100 % of control | [4] 96 % of control | [5] 104 % of control | [6] 94 % of control

CC(C)CC(CC(C)C)NCC(C)OC(=O)c1ccc([N+](=O)[O-])cc1 (stereo not given)
inactive: dose: 100.0 mg/kg/injection, schedule: Q01DX009 (ip), vehicle: water 93 % of control | dose: 100.0 mg/kg/injection, schedule: Q04DX003 (ip), vehicle: water 98 % of control | dose: 200.0 mg/kg/injection, schedule: Q01DX009 (ip), vehicle: water 88 % of control | dose: 200.0 mg/kg/injection, schedule: Q04DX003 (ip), vehicle: water 98 % of control | dose: 400.0 mg/kg/injection, schedule: Q01DX009 (ip), vehicle: water 86 % of control | dose: 400.0 mg/kg/injection, schedule: Q04DX003 (ip), vehicle: water 96 % of control

CSc1ccc(N2C(=O)C3C(C2=O)C2(Cl)C(Cl)=C(Cl)C3(Cl)C2(Cl)Cl)cc1 (stereo not given)
inactive: [1] 105 % of control | [2] 101 % of control | [3] 100 % of control | [4] 104 % of control | [5] 103 % of control | [6] 98 % of control

CC1(C)N=C(N)N=C(N)N1CCCOc1ccc(NC(=O)Nc2cccc(S(=O)(=O)F)c2)cc1
inactive: dose: 25.0 mg/kg/injection, schedule: Q01DX001 (ip), vehicle: saline with Tween-80 102 % of control | dose: 50.0 mg/kg/injection, schedule: Q01DX001 (ip), vehicle: saline with Tween-80 100 % of control

O=c1cc(NCc2ccccc2[N+](=O)[O-])[nH]c(=O)[nH]1
inactive: [7] 95 % of control | [8] 100 % of control | [9] 98 % of control

O=C(O)C1C(C(=O)Nc2cc(C(F)(F)F)ccc2Cl)C2(Cl)C(Cl)=C(Cl)C1(Cl)C2(Cl)Cl (stereo not given)
inactive: [10] 97 % of control | [11] 95 % of control | [12] 95 % of control | [2] 93 % of control and 91 % of control

CN(C)CCCN=Cc1cc(Cl)ccc1O.CN(C)CCCN=Cc1cc(Cl)ccc1O.[Ni+2]
inactive: dose: 6.25 mg/kg/injection, schedule: Q04DX003 (ip), vehicle: saline with Tween-80 92 % of control | dose: 12.5 mg/kg/injection, schedule: Q04DX003 (ip), vehicle: saline with Tween-80 105 % of control | dose: 25.0 mg/kg/injection, schedule: Q04DX003 (ip), vehicle: saline with Tween-80 97 % of control

CCOC(=O)C(=O)c1ccc[nH]1
inactive: dose: 100.0 mg/kg/injection, schedule: Q01DX001 (ip), vehicle: saline with Tween-80 114 % of control | dose: 100.0 mg/kg/injection, schedule: Q04DX003 (ip), vehicle: saline with Tween-80 94 % of control | dose: 200.0 mg/kg/injection, schedule: Q01DX001 (ip), vehicle: saline with Tween-80 115 % of control | dose: 200.0 mg/kg/injection, schedule: Q04DX003 (ip), vehicle: saline with Tween-80 101 % of control | dose: 400.0 mg/kg/injection, schedule: Q01DX001 (ip), vehicle: saline with Tween-80 111 % of control | dose: 400.0 mg/kg/injection, schedule: Q04DX003 (ip), vehicle: saline with Tween-80 92 % of control

CCSc1ncnc2nc(C)[nH]c12
inactive: [7] 100 % of control | [8] 101 % of control

O=C(CCl)N=c1cc(-c2ccc(Cl)cc2)ss1
inactive: dose: 50.0 mg/kg/injection, schedule: Q04DX002 (ip), vehicle: saline 98 % of control | dose: 100.0 mg/kg/injection, schedule: Q04DX002 (ip), vehicle: saline 98 % of control

Clc1ccc(C=Nc2ccc3c(c2)Cc2ccccc2-3)cc1
inactive: [1] 90 % of control | [2] 96 % of control | [3] 93 % of control | [4] 102 % of control | [5] 92 % of control | [6] 91 % of control

O=[N+]([O-])c1ccc(/C=C/c2nnc(/C=C/c3ccc([N+](=O)[O-])cc3)o2)cc1
inactive: dose: 50.0 mg/kg/injection, schedule: Q04DX002 (ip), vehicle: saline with Tween-80 100 % of control | dose: 100.0 mg/kg/injection, schedule: Q04DX002 (ip), vehicle: saline with Tween-80 89 % of control | dose: 200.0 mg/kg/injection, schedule: Q04DX002 (ip), vehicle: saline with Tween-80 92 % of control | dose: 400.0 mg/kg/injection, schedule: Q04DX002 (ip), vehicle: saline with Tween-80 100 % of control

N#Cc1c(CSC(=N)N)sc2ccccc12
inactive: dose: 12.5 mg/kg/injection, schedule: Q04DX003 (ip), vehicle: Klucel (hydroxypropylcellulose) (HPC) 102 % of control | [10] 105 % of control | dose: 25.0 mg/kg/injection, schedule: Q04DX003 (ip), vehicle: Klucel (hydroxypropylcellulose) (HPC) 101 % of control | [11] 101 % of control | [12] 96 % of control | [1] 100 % of control | [2] 98 % of control

From PubChem BioAssay AID248 (DTP/NCI, 2004)
